The structures appear in SMILES notation.

For the first experiment, the target named is hROMK1 (Kir1.1) (Homo sapiens (Human), UniProt P48048). The experiment is described as follows: ^86Rb^+ Efflux Assay. In kind it is cell-based. Conditions: CHO-DHFR- cells stably expressing hROMK1 (Kir1.1); value in parentheses at the end of each Example; read-out: IC50 in the ^86Rb^+ Efflux Assay.
Sequence of hROMK1 (Kir1.1) (P48048 whole entry): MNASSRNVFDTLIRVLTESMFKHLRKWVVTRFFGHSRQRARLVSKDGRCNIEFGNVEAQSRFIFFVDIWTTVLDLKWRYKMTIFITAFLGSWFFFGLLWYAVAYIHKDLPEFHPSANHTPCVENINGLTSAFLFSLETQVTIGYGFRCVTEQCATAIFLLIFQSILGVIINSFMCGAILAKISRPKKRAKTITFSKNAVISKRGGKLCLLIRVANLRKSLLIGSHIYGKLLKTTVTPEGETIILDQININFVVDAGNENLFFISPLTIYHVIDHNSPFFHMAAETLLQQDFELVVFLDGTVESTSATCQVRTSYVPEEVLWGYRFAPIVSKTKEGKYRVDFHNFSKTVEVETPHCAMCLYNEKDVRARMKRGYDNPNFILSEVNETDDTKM
What is called IC50 is the midpoint of a concentration-inhibition curve. Take `COc1cc(CCN2CCN(CCc3ccc4c(c3C)COC4=O)CC2)c(F)cc1C#N` [Example 53, 5-Fluoro-2-methoxy-4-(2-{4-[2-(4-methyl-1-oxo-1,3-dihydro-2-benzofuran-5-yl)ethyl]piperazin-1-yl}ethyl)benzonitrile]: the 50% inhibitory concentration (IC50) was 0.034 µM. In the case of `COc1cc(CCN2CCN(CCc3cc(OC)c(C#N)cc3F)CC2)c(F)cc1C#N` [Example 54, 4,4′-(Piperazine-1,4-diyldiethane-2,1-diyl)bis(5-fluoro-2-methoxybenzonitrile)], the IC50 came to 0.34 µM. On the same count and under the same terms, next, `COc1cc(CCN2CCN(CCc3ccc4c(c3)COC4=O)CC2C(F)(F)F)ccc1C#N` (stereo not shown) [Example 56, 2-Methoxy-4-(2-{4-[2-(1-oxo-1,3-dihydro-2-benzofuran-5-yl)ethyl]-2-(trifluoromethyl)piperazin-1-yl}ethyl)benzonitrile]: 0.27 µM.

As to `COc1cc(CCN2CCN(CCc3ccc4c(c3)CC(C)OC4=O)CC2)ccc1C#N` (stereo not shown) [Example 57, 2-Methoxy-4-(2-{4-[2-(3-methyl-1-oxo-3,4-dihydro-1H-isochromen-6-yl)ethyl]piperazin-1-yl}ethyl)benzonitrile], the IC50 worked out at 0.098 µM. The same measure, in the same setting: as for `Cc1c(CCN2CCN(CCc3ccc4c(c3C)COC4=O)CC2)ccc2c1COC2=O` [Example 59, 5,5′-(Piperazine-1,4-diyldiethane-2,1-diyl)bis(4-methyl-2-benzofuran-1(3H)-one)], the figure is 0.076 µM; as for `COc1cc(CCN2CCN(CCc3ccc4c(c3)COC4=O)CC2)c(Cl)cc1C#N` [Example 61, 5-Chloro-2-methoxy-4-(2-{4-[2-(1-oxo-1,3-dihydro-2-benzofuran-5-yl)ethyl]piperazin-1-yl}ethyl)benzonitrile], 0.094 µM; as for `N#Cc1ccc(CCN2CCN(CCc3ccc4c(c3)COC4=O)CC2)cc1OC(F)F` [Example 63, 2-(Difluoromethoxy)-4-(2-{4-[2-(1-oxo-1,3-dihydro-2-benzofuran-5-yl)ethyl]piperazin-1-yl}ethyl)benzonitrile], 0.15 µM. On the same count and under the same terms, as for `N#Cc1ccc2c(c1)CCC(N1CCN(CCc3ccc4c(c3)COC4=O)CC1)C2` (stereo not shown) [Example 66, 6-{4-[2-(1-Oxo-1,3-dihydro-2-benzofuran-5-yl)ethyl]piperazin-1-yl}-5,6,7,8-tetrahydronaphthalene-2-carbonitrile], the figure is 0.05 µM.

Turning to `Cc1c(CCN2CCN(CCc3ccc(C#N)c(OC(F)(F)F)c3)CC2)ccc2c1COC2=O` [Example 69, 2-Trifluoromethoxy-4-(2-{4-[2-(4-methyl-1-oxo-1,3-dihydro-2-benzofuran-5-yl)ethyl]piperazin-1-yl}ethyl)benzonitrile], the IC50 was 0.2 µM. Same read-out and setting: as for `Cc1c(CCN2CCN(CCc3ccc(C#N)c(Cl)c3)CC2)ccc2c1COC2=O` [Example 71, 2-Chloro-4-(2-{4-[2-(4-methyl-1-oxo-1,3-dihydro-2-benzofuran-5-yl)ethyl]piperazin-1-yl}ethyl)benzonitrile], the figure is 0.035 µM; as for `COc1c(C#N)ccc(CCN2CCN(CCc3ccc4c(c3)COC4=O)CC2)c1F` [Example 72, 3-Fluoro-2-methoxy-4-(2-{4-[2-(1-oxo-1,3-dihydro-2-benzofuran-5-yl)ethyl]piperazin-1-yl}ethyl)benzonitrile], 0.092 µM. Regarding `COc1c(C#N)ccc(CCN2CCN(CCc3ccc4c(c3C)COC4=O)CC2)c1F` [Example 73, 3-Fluoro-2-methoxy-4-(2-{4-[2-(4-methyl-1-oxo-1,3-dihydro-2-benzofuran-5-yl)ethyl]piperazin-1-yl}ethyl)benzonitrile], the IC50 stood at 0.091 µM. The same measure, in the same setting: next, `Cc1c(CCN2CCN(CCc3ccc(C#N)c4ccccc34)CC2)ccc2c1COC2=O` [Example 74, 4-(2-{4-[2-(4-Methyl-1-oxo-1,3-dihydro-2-benzofuran-5-yl)ethyl]piperazin-1-yl}ethyl)naphthalene-1-carbonitrile]: 0.16 µM; `Cc1c(CCN2CCN(CCc3c(F)cc(C#N)c(F)c3F)CC2)ccc2c1COC2=O` [Example 75, 2,3,5-Trifluoro-4-(2-{4-[2-(4-methyl-1-oxo-1,3-dihydro-2-benzofuran-5-yl)ethyl]piperazin-1-yl}ethyl)benzonitrile]: 0.23 µM. Same read-out and setting: next, `CCOc1cc(CCN2CCN(CCc3ccc4c(c3C)COC4=O)CC2)ccc1C#N` [Example 77, 2-Ethoxy-4-(2-{4-[2-(4-methyl-1-oxo-1,3-dihydro-2-benzofuran-5-yl)ethyl]piperazin-1-yl}ethyl)benzonitrile]: 0.074 µM. The same measure, in the same setting: next, `N#Cc1cc(Cl)c(CCN2CCN(CCc3ccc4c(c3)COC4=O)CC2)cc1F` [Example 78, 5-Chloro-2-fluoro-4-(2-{4-[2-(1-oxo-1,3-dihydro-2-benzofuran-5-yl)ethyl]piperazin-1-yl}ethyl)benzonitrile]: 0.076 µM. For `Cc1c(CCN2CCN(CCc3cc(F)c(C#N)cc3Cl)CC2)ccc2c1COC2=O` [Example 79, 5-Chloro-2-fluoro-4-(2-{4-[2-(4-methyl-1-oxo-1,3-dihydro-2-benzofuran-5-yl)ethyl]piperazin-1-yl}ethyl)benzonitrile], the IC50 stood at 0.048 µM.

Consider `COc1cc(CCN2CCN(CCc3ccc4c(c3C)COC4=O)CC2)c(Cl)cc1C#N` [Example 80, 5-Chloro-2-methoxy-4-(2-{4-[2-(4-methyl-1-oxo-1,3-dihydro-2-benzofuran-5-yl)ethyl]piperazin-1-yl}ethyl)benzonitrile], for which the IC50 amounted to 0.071 µM. The same measure, in the same setting: next, `Cc1c(CCN2CCN(CCc3ccc4c(c3)COC4=O)CC2)ccc(C#N)c1F` [Example 81, 2-Fluoro-3-methyl-4-(2-{4-[2-(1-oxo-1,3-dihydro-2-benzofuran-5-yl)ethyl]piperazin-1-yl}ethyl)benzonitrile]: 0.08 µM; `Cc1c(CCN2CCN(CCc3ccc4c(c3C)COC4=O)CC2)ccc(C#N)c1F` [Example 82, 2-Fluoro-3-methyl-4-(2-{4-[2-(4-methyl-1-oxo-1,3-dihydro-2-benzofuran-5-yl)ethyl]piperazin-1-yl}ethyl)benzonitrile]: 0.063 µM; `COc1c(C#N)ccc(CCN2CCN(CCc3ccc4c(c3)COC4=O)CC2)c1C` [Example 83, 2-Methoxy-3-methyl-4-(2-{4-[2-(1-oxo-1,3-dihydro-2-benzofuran-5-yl)ethyl]piperazin-1-yl}ethyl)benzonitrile]: 0.18 µM. In the case of `COc1c(C#N)ccc(CCN2CCN(CCc3ccc4c(c3C)COC4=O)CC2)c1C` [Example 84, 2-Methoxy-3-methyl-4-(2-{4-[2-(4-methyl-1-oxo-1,3-dihydro-2-benzofuran-5-yl)ethyl]piperazin-1-yl}ethyl)benzonitrile], the IC50 was 0.078 µM. Same read-out and setting: next, `N#Cc1ccc(CCN2CCN(CCc3ccc4c(c3)COC4=O)CC2)c(Cl)c1F` [Example 85, 3-Chloro-2-fluoro-4-(2-{4-[2-(1-oxo-1,3-dihydro-2-benzofuran-5-yl)ethyl]piperazin-1-yl}ethyl)benzonitrile]: 0.13 µM.

In the case of `COc1c(C#N)ccc(CCN2CCN(CCc3ccc4c(c3)COC4=O)CC2)c1Cl` [Example 87, 3-Chloro-2-methoxy-4-(2-{4-[2-(1-oxo-1,3-dihydro-2-benzofuran-5-yl)ethyl]piperazin-1-yl}ethyl)benzonitrile], the IC50 stood at 0.16 µM.

The same experiment, now with this note: Table 1; CHO-DHFR- cells stably expressing hROMK1 (Kir1.1); read-out: ^86Rb^+ Efflux Assay IC50.
As to `COc1cc(CCN2CCN(CCc3ccc4c(c3)COC4=O)CC2C(F)(F)F)ccc1C#N` (stereo not shown) [Example 56, 2-Methoxy-4-(2-{4-[2-(1-oxo-1,3-dihydro-2-benzofuran-5-yl)ethyl]-2-(trifluoromethyl)piperazin-1-yl}ethyl)benzonitrile], the IC50 was 0.27 µM.

As to `COc1cc(CCN2CCN(CCc3ccc4c(c3)CC(C)OC4=O)CC2)ccc1C#N` (stereo not shown) [Example 57, 2-Methoxy-4-(2-{4-[2-(3-methyl-1-oxo-3,4-dihydro-1H-isochromen-6-yl)ethyl]piperazin-1-yl}ethyl)benzonitrile], the IC50 amounted to 0.098 µM. The same measure, in the same setting: next, `Cc1c(CCN2CCN(CCc3ccc4c(c3C)COC4=O)CC2)ccc2c1COC2=O` [Example 59, 5,5′-(Piperazine-1,4-diyldiethane-2,1-diyl)bis(4-methyl-2-benzofuran-1(3H)-one)]: 0.076 µM; `Cc1c(CCN2CCN(CCc3ccc(C#N)c4ccccc34)CC2)ccc2c1COC2=O` [Example 74, 4-(2-{4-[2-(4-Methyl-1-oxo-1,3-dihydro-2-benzofuran-5-yl)ethyl]piperazin-1-yl}ethyl)naphthalene-1-carbonitrile]: 0.16 µM.

Source of the values: patent publication US9073882B2, “Inhibitors of the renal outer medullary potassium channel” (Merck Sharp & Dohme Corp., priority 2010, dated 2015).
